Assay results published in paper PMC10892375, “Determination of the Cannabinoid CB1 Receptor’s Positive Allosteric Modulator Binding Site through Mutagenesis Studies” (Pharmaceuticals, 2024).

What was measured:
Type in all cases: cell-based
[1] = biological target: T1, hCB1 mutant L209A^3.45 (Homo sapiens, UniProt P21554, L209A); assay: pIRES G protein dissociation BRET assay, L209A mutant
T1 construct: expressed in transfected cells; host or cells: HEK293
Experimental: (§1) Mutagenesis studies using the pIRES G protein dissociation assay were performed using human embryonic kidney 293 (HEK293) wild-type cells transiently transfected with pplss-3HA-hCB1 [31] or modified receptor. All cells were cultured in Dulbecco’s Modified Eagle’s Medium (DMEM) supplemented with 10% fetal bovine serum (FBS), grown in […] vented-cap flasks, and maintained in a 37° C incubator at 5% CO2.
(§2) Mutants of pplss-3HA-hCB1 (WT, pEF-V4-HisA (pEF4a) construct) were generated using a modified QuikChange® (Stratagene, San Diego, CA, USA) site-directed mutagenesis approach using KAPA HiFi Hotstart Polymerase (KAPA Biosystems, Roche, Basel, Switzerland). Briefly, single-stranded primers used to modify one or two base pairs within the target amino acid using PCR were purchased from Integrated DNA Technologies (IDT, Coralville, IA, USA). All pplss-hCB1 mutants were generated using the pplss-3HA-hCB1 pEF4a as parental DNA. PCR products were generated using recommended cycling conditions and treated with Dpn1 (New England Biolabs, Ipswich, MA, USA) overnight at 37° C to digest methylated parental DNA. PCR products were electrophoresed and run on an agarose gel (1% (w.v^−1) agarose, HydraGene, Piscataway, NJ, USA) containing 0.25 μg/mL ethidium bromide (Sigma-Aldrich, St. Louis, MO, USA). Gels were run in 40 mM TRIS-acetate buffer containing […] (pH 8.3) at 100 V for 30 min, maximum current and included a 1kb+ DNA ladder (Invitrogen, Thermo Fisher Scientific, Carlsbad, CA, USA) for reference. Gels were imaged using an UVTech Alliance Q9 Mini transilluminator (UVTech Alliance, Cambridge, UK). Digested products were then used to transform NEB 5α competent E. coli cells in accordance with manufacturer’s instructions. Briefly, transformed PCR products were grown overnight on 8.5 mL Luria Broth agar plates (containing 100 μg/mL ampicillin) at 37° C. Single bacterial colonies were picked and inoculated in Luria Broth (containing 100 μg/mL ampicillin) and grown overnight in a shaking incubator at 37° C. Plasmids were then harvested and purified using a Qiagen miniprep kit (Qiagen, Hilden, Germany) and validated using sequencing (Genetics Analysis Service, University of Otago, Dunedin, New Zealand).
(§3) Dissociation of the G protein heterotrimer, specifically Gαi1, Gβ1, and Gγ2, was investigated using a bioluminescence resonance energy transfer (BRET) assay with the pIRES biosensor first described by and adapted by.
(§4) Briefly, 3 × 10^6 WT HEK293 cells were seeded into 10 cm culture dishes (Corning, Corning, NY, USA; one dish for the control receptor and one for each modified receptor) and incubated at 37 °C for 24 h to gain 50–60% confluency. Culture medium was then replaced and transfection mixtures containing 3 μg pIRES vector and 1 μg receptor (either pplss-hCB1 or modified receptor) were prepared (4 μg total DNA). Plasmids were initially diluted in sterile Milli-Q water before being diluted in OptiMEM reduced serum medium (Thermo Fisher Scientific, Waltham, MA, USA) and combined with […] polyethylenimine (PEI)-max (1:9 DNA:PEI-max ratio) and incubated at room temperature for 20 min. Transfection mixtures were then added to cells via dropwise addition, and cells were incubated at 37 °C for 24 h. Transfected cells were lifted and plated at 50,000 cells/well into poly-d-lysine (PDL; Sigma-Aldrich) coated white 96-well CulturPlates (PerkinElmer, Waltham, MA, USA) and incubated for a further 24 h at 37 °C.
To assay, the culture medium was aspirated and cells were washed with phosphate buffered saline (PBS) and replaced with BRET assay medium (phenol red free DMEM containing 25 mM HEPES and supplemented with 1 mg/mL bovine serum albumin; BSA, MP Biomedicals, Auckland, New Zealand) for 30 min prior to drug addition (serum starve). Drugs were prepared at 10 × concentration in BRET assay medium, combined in a polypropylene V-bottom plate, and incubated at 37° C prior to drug stimulation. […]

[2] = biological target: T2, hCB1 mutant I169A^2.56 (Homo sapiens, UniProt P21554, I169A); assay: pIRES G protein dissociation BRET assay, I169A mutant
T2 construct: expressed in transfected cells; host or cells: HEK293
T2 sequence (P21554 whole entry I169A): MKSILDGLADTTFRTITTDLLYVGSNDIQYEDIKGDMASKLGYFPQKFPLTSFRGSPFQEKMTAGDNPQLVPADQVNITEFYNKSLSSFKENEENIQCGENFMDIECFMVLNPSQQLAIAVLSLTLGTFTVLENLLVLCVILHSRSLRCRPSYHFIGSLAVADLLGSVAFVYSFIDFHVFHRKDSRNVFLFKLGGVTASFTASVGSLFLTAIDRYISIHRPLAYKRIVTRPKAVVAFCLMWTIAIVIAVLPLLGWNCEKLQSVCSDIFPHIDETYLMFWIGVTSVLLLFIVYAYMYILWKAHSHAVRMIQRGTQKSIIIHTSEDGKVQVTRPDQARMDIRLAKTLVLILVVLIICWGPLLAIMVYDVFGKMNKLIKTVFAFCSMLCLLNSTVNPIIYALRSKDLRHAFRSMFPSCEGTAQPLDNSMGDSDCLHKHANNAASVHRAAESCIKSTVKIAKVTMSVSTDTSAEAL
Experimental: as §1, §2, §3, §4
(§5) To assay, the culture medium was aspirated and cells were washed with phosphate buffered saline (PBS) and replaced with BRET assay medium (phenol red free DMEM containing 25 mM HEPES and supplemented with 1 mg/mL bovine serum albumin; BSA, MP Biomedicals, Auckland, New Zealand) for 30 min prior to drug addition (serum starve). Drugs were prepared at 10 × concentration in BRET assay medium, combined in a polypropylene V-bottom plate, and incubated at 37° C prior to drug stimulation.

[3] = biological target: T3, hCB1 mutant K232A^4.41 (Homo sapiens, UniProt P21554, K232A); assay: pIRES G protein dissociation BRET assay, K232A mutant
T3 construct: expressed in transfected cells; host or cells: HEK293
T3 sequence (P21554 whole entry K232A): as the sequence (P21554 whole entry I169A) above, with A169I, K232A counted along it
Experimental: as §1, §2, §3, §4, §5

[4] = biological target: T4, hCB1 mutant F289A^5.53 (Homo sapiens, UniProt P21554, F289A); assay: pIRES G protein dissociation BRET assay, F289A mutant
T4 construct: expressed in transfected cells; host or cells: HEK293
T4 sequence (P21554 whole entry F289A): as the sequence (P21554 whole entry I169A) above, with A169I, F289A counted along it
Experimental: as §1, §2, §3, §4, §5

[5] = biological target: T5, hCB1 mutant Y172A^2.59 (Homo sapiens, UniProt P21554, Y172A); assay: pIRES G protein dissociation BRET assay, Y172A mutant
T5 construct: expressed in transfected cells; host or cells: HEK293
T5 sequence (P21554 whole entry Y172A): as the sequence (P21554 whole entry I169A) above, with A169I, Y172A counted along it
Experimental: as §1, §2, §3, §4, §5

[6] = biological target: T6, hCB1 mutant L404A^8.50 (Homo sapiens, UniProt P21554, L404A); assay: pIRES G protein dissociation BRET assay, L404A mutant
T6 construct: expressed in transfected cells; host or cells: HEK293
T6 sequence (P21554 whole entry L404A): as the sequence (P21554 whole entry I169A) above, with A169I, L404A counted along it
Experimental: as §1, §2, §3, §4, §5

[7] = biological target: T7, hCB1 mutant H154A^2.41 (Homo sapiens, UniProt P21554, H154A); assay: pIRES G protein dissociation BRET assay, H154A mutant
T7 construct: expressed in transfected cells; host or cells: HEK293
T7 sequence (P21554 whole entry H154A): as the sequence (P21554 whole entry I169A) above, with H154A, A169I counted along it
Experimental: as §1, §2, §3, §4, §5

[8] = biological target: T8, hCB1 mutant S173A^2.60 (Homo sapiens, UniProt P21554, S173A); assay: pIRES G protein dissociation BRET assay, S173A mutant
T8 construct: expressed in transfected cells; host or cells: HEK293
T8 sequence (P21554 whole entry S173A): as the sequence (P21554 whole entry I169A) above, with A169I, S173A counted along it
Experimental: as §1, §2, §3, §4, §5

[9] = biological target: T9, hCB1 mutant I245A^4.54 (Homo sapiens, UniProt P21554, I245A); assay: pIRES G protein dissociation BRET assay, I245A mutant
T9 construct: expressed in transfected cells; host or cells: HEK293
T9 sequence (P21554 whole entry I245A): as the sequence (P21554 whole entry I169A) above, with A169I, I245A counted along it
Experimental: as §1, §2, §3, §4, §5

[10] = 10 μM CP55940 in the presence of 10 μM ZCZ011
[11] = in the presence of 10 μM GAT228
[12] = in the presence of 10 μM GAT229
[13] = top of the curve (maximal response)

T1 sequence (P21554 whole entry L209A): as the sequence (P21554 whole entry I169A) above, with A169I, L209A counted along it

SMILES: CCCCCCC(C)(C)c1ccc([C@@H]2C[C@H](O)CC[C@H]2CCCO)c(O)c1 [CP55940]
- G protein dissociation, AUC, 10 μM CP55940 + 10 μM ZCZ011 [1, 10]: −71.3 ± 4.2
- G protein dissociation, AUC of 10 μM compound (maximal response) ([1]; 10 μM ligand alone): −42.7 ± 2.8
- EMAX, CP55940 + 10 μM GAT228 [1, 11]: −43.2 ± 4.5 ∆BRET.sec
- EMAX, CP55940 + 10 μM GAT229 [1, 12]: −51.9 ± 2.8 ∆BRET.sec
- EMAX, CP55940 Alone [1, 13]: −39.8 ± 1.1 ∆BRET.sec
- G protein dissociation, AUC of 10 μM compound (maximal response) ([2]; 10 μM ligand alone): −113.1 ± 11.7
- EMAX, CP55940 + 10 μM GAT228 [2, 11]: −117.0 ± 7.4 ∆BRET.sec
- EMAX, CP55940 + 10 μM GAT229 [2, 12]: −109.7 ± 8.3 ∆BRET.sec
- EMAX, CP55940 Alone [2, 13]: −110.7 ± 10.3 ∆BRET.sec
- G protein dissociation, AUC, 10 μM CP55940 + 10 μM ZCZ011 [3, 10]: −194.9 ± 7.2
- G protein dissociation, AUC of 10 μM compound (maximal response) ([3]; 10 μM ligand alone): −167.7 ± 9.6
- EMAX, CP55940 + 10 μM GAT228 [3, 11]: −181.9 ± 8.6 ∆BRET.sec
- EMAX, CP55940 + 10 μM GAT229 [3, 12]: −194.9 ± 9.0 ∆BRET.sec
- EMAX, CP55940 Alone [3, 13]: −160.6 ± 7.6 ∆BRET.sec
- G protein dissociation, AUC, 10 μM CP55940 + 10 μM ZCZ011 [4, 10]: −167.8 ± 6.9
- EMAX, CP55940 + 10 μM GAT228 [4, 11]: −156.7 ± 5.3 ∆BRET.sec
- EMAX, CP55940 + 10 μM GAT229 [4, 12]: −161.1 ± 6.5 ∆BRET.sec
- EMAX, CP55940 Alone [4, 13]: −145.4 ± 5.7 ∆BRET.sec
- G protein dissociation, AUC, 10 μM CP55940 + 10 μM ZCZ011 [5, 10]: −305.2 ± 5.7
- G protein dissociation, AUC of 10 μM compound (maximal response) ([5]; 10 μM ligand alone): −284.7 ± 8.4
- EMAX, CP55940 + 10 μM GAT228 [5, 11]: −298.9 ± 5.4 ∆BRET.sec
- EMAX, CP55940 + 10 μM GAT229 [5, 12]: −309.0 ± 3.5 ∆BRET.sec
- EMAX, CP55940 Alone [5, 13]: −273.2 ± 6.9 ∆BRET.sec
- G protein dissociation, AUC, 10 μM CP55940 + 10 μM ZCZ011 [6, 10]: −133.5 ± 5.6
- G protein dissociation, AUC of 10 μM compound (maximal response) ([6]; 10 μM ligand alone): −110.3 ± 3.7
- EMAX, CP55940 + 10 μM GAT228 [6, 11]: −115.1 ± 8.3 ∆BRET.sec
- EMAX, CP55940 + 10 μM GAT229 [6, 12]: −122.3 ± 7.0 ∆BRET.sec
- EMAX, CP55940 Alone [6, 13]: −103.1 ± 3.6 ∆BRET.sec
- G protein dissociation, AUC, 10 μM CP55940 + 10 μM ZCZ011 [7, 10]: −189.5 ± 8.5
- EMAX, CP55940 + 10 μM GAT228 [7, 11]: −200.5 ± 11.6 ∆BRET.sec
- EMAX, CP55940 + 10 μM GAT229 [7, 12]: −210.6 ± 10.1 ∆BRET.sec
- EMAX, CP55940 Alone [7, 13]: −151.8 ± 5.9 ∆BRET.sec
- G protein dissociation, AUC, 10 μM CP55940 + 10 μM ZCZ011 [8, 10]: −186.8 ± 5.5
- G protein dissociation, AUC of 10 μM compound (maximal response) ([8]; 10 μM ligand alone): −146.2 ± 5.5
- EMAX, CP55940 + 10 μM GAT228 [8, 11]: −176.1 ± 6.9 ∆BRET.sec
- EMAX, CP55940 + 10 μM GAT229 [8, 12]: −186.4 ± 7.5 ∆BRET.sec
- EMAX, CP55940 Alone [8, 13]: −143.0 ± 5.7 ∆BRET.sec
- G protein dissociation, AUC, 10 μM CP55940 + 10 μM ZCZ011 [9, 10]: −183.2 ± 7.2
- EMAX, CP55940 + 10 μM GAT228 [9, 11]: −163.7 ± 8.2 ∆BRET.sec
- EMAX, CP55940 + 10 μM GAT229 [9, 12]: −182.9 ± 7.0 ∆BRET.sec
- EMAX, CP55940 Alone [9, 13]: −150.1 ± 9.8 ∆BRET.sec
